From ChEMBL document CHEMBL1649216, “The diarylquinoline R207910 is bactericidal against Mycobacterium leprae in mice at low dose and administered intermittently” (Antimicrob Agents Chemother, 2009)
Active and inactive are the calls of the source.

How the values were obtained:
Type in all cases: functional, organism-based
Mycobacterium leprae [1] = experiment: Antimycobacterial activity against Mycobacterium leprae infected in CBA/J mouse assessed as microbial growth inhibition at 100 mg/kg, po administered once weekly during logarithmic multiplication from day 60 to day 150 post infection measured on day 302 to 365 post infection; set-up: dose 100 mg/kg
Mycobacterium leprae [2] = experiment: Antimycobacterial activity against Mycobacterium leprae infected in CBA/J mouse assessed as microbial growth inhibition at 12.5 mg/kg, po administered 5 times weekly during logarithmic multiplication from day 60 to day 150 post infection measured on day 228 post infection; set-up: dose 12.5 mg/kg
Mycobacterium leprae [3] = experiment: Antimycobacterial activity against Mycobacterium leprae infected in CBA/J mouse assessed as microbial growth inhibition at 6 mg/kg, po administered 5 times weekly during logarithmic multiplication from day 60 to day 150 post infection measured on day 228 post infection; set-up: dose 6 mg/kg
Mycobacterium leprae [4] = experiment: Antimycobacterial activity against Mycobacterium leprae infected in CBA/J mouse assessed as microbial growth inhibition at 25 mg/kg, po administered once monthly during logarithmic multiplication from day 60 to day 150 post infection measured on day 152 post infection; set-up: dose 25 mg/kg
Mycobacterium leprae [5] = experiment: Antimycobacterial activity against Mycobacterium leprae infected in CBA/J mouse assessed as microbial growth inhibition at 50 mg/kg, po administered once monthly during logarithmic multiplication from day 60 to day 150 post infection measured on day 152 post infection; set-up: dose 50 mg/kg
Mycobacterium leprae [6] = experiment: Antimycobacterial activity against Mycobacterium leprae infected in CBA/J mouse assessed as microbial growth inhibition at 50 mg/kg, po administered once monthly during logarithmic multiplication from day 60 to day 150 post infection measured on day 302 to 365 post infection; set-up: dose 50 mg/kg
Mycobacterium leprae [7] = experiment: Antimycobacterial activity against Mycobacterium leprae infected in CBA/J mouse assessed as microbial growth inhibition at 100 mg/kg, po administered once weekly during logarithmic multiplication from day 60 to day 150 post infection measured on day 228 post infection; set-up: dose 100 mg/kg
Mycobacterium leprae [8] = experiment: Antimycobacterial activity against Mycobacterium leprae infected in CBA/J mouse assessed as microbial growth inhibition at 25 mg/kg, po administered once monthly during logarithmic multiplication from day 60 to day 150 post infection measured on day 228 post infection; set-up: dose 25 mg/kg
Mycobacterium leprae [9] = experiment: Antimycobacterial activity against Mycobacterium leprae infected in CBA/J mouse assessed as microbial growth inhibition at 120 mg/kg, po administered once monthly during logarithmic multiplication from day 60 to day 150 post infection measured on day 228 post infection; set-up: dose 120 mg/kg
Mycobacterium leprae [10] = experiment: Antimycobacterial activity against Mycobacterium leprae infected in CBA/J mouse assessed as microbial growth inhibition at 120 mg/kg, po administered once monthly during logarithmic multiplication from day 60 to day 150 post infection measured on day 302 to 365 post infection; set-up: dose 120 mg/kg
Mycobacterium leprae [11] = experiment: Antimycobacterial activity against Mycobacterium leprae infected in CBA/J mouse assessed as microbial growth inhibition at 30 mg/kg, po administered once weekly during logarithmic multiplication from day 60 to day 150 post infection measured on day 302 to 365 post infection; set-up: dose 30 mg/kg
Mycobacterium leprae [12] = experiment: Antimycobacterial activity against Mycobacterium leprae infected in CBA/J mouse assessed as microbial growth inhibition at 1 mg/kg, po administered 5 times weekly during logarithmic multiplication from day 60 to day 150 post infection measured on day 152 post infection; set-up: dose 1 mg/kg
Mycobacterium leprae [13] = experiment: Antimycobacterial activity against Mycobacterium leprae infected in CBA/J mouse assessed as microbial growth inhibition at 100 mg/kg, po administered once monthly during logarithmic multiplication from day 60 to day 150 post infection measured on day 152 post infection; set-up: dose 100 mg/kg
Mycobacterium leprae [14] = experiment: Antimycobacterial activity against Mycobacterium leprae infected in CBA/J mouse assessed as microbial growth inhibition at 25 mg/kg, po administered 5 times weekly during logarithmic multiplication from day 60 to day 150 post infection measured on day 228 post infection; set-up: dose 25 mg/kg
Mycobacterium leprae [15] = experiment: Antimycobacterial activity against Mycobacterium leprae infected in CBA/J mouse assessed as microbial growth inhibition at 30 mg/kg, po administered once weekly during logarithmic multiplication from day 60 to day 150 post infection measured on day 152 post infection; set-up: dose 30 mg/kg
Mycobacterium leprae [16] = experiment: Antimycobacterial activity against Mycobacterium leprae infected in CBA/J mouse assessed as microbial growth inhibition at 3 mg/kg, po administered 5 times weekly during logarithmic multiplication from day 60 to day 150 post infection measured on day 228 post infection; set-up: dose 3 mg/kg
Mycobacterium leprae [17] = experiment: Antimycobacterial activity against Mycobacterium leprae infected in CBA/J mouse assessed as microbial growth inhibition at 50 mg/kg, po administered once weekly during logarithmic multiplication from day 60 to day 150 post infection measured on day 228 post infection; set-up: dose 50 mg/kg
Mycobacterium leprae [18] = experiment: Antimycobacterial activity against Mycobacterium leprae infected in CBA/J mouse assessed as microbial growth inhibition at 100 mg/kg, po administered once weekly during logarithmic multiplication from day 60 to day 150 post infection measured on day 152 post infection; set-up: dose 100 mg/kg
Mycobacterium leprae [19] = experiment: Antimycobacterial activity against Mycobacterium leprae infected in CBA/J mouse assessed as microbial growth inhibition at 3 mg/kg, po administered 5 times weekly during logarithmic multiplication from day 60 to day 150 post infection measured on day 152 post infection; set-up: dose 3 mg/kg
Mycobacterium leprae [20] = experiment: Antimycobacterial activity against Mycobacterium leprae infected in CBA/J mouse assessed as microbial growth inhibition at 50 mg/kg, po administered once weekly during logarithmic multiplication from day 60 to day 150 post infection measured on day 302 to 365 post infection; set-up: dose 50 mg/kg
Mycobacterium leprae [21] = experiment: Antimycobacterial activity against Mycobacterium leprae infected in CBA/J mouse assessed as microbial growth inhibition at 50 mg/kg, po administered once monthly during logarithmic multiplication from day 60 to day 150 post infection measured on day 228 post infection; set-up: dose 50 mg/kg
Mycobacterium leprae [22] = experiment: Antimycobacterial activity against Mycobacterium leprae infected in CBA/J mouse assessed as microbial growth inhibition at 30 mg/kg, po administered once weekly during logarithmic multiplication from day 60 to day 150 post infection measured on day 228 post infection; set-up: dose 30 mg/kg
Mycobacterium leprae [23] = experiment: Antimycobacterial activity against Mycobacterium leprae infected in CBA/J mouse assessed as microbial growth inhibition at 100 mg/kg, po administered once monthly during logarithmic multiplication from day 60 to day 150 post infection measured on day 228 post infection; set-up: dose 100 mg/kg
Mycobacterium leprae [24] = experiment: Antimycobacterial activity against Mycobacterium leprae infected in CBA/J mouse assessed as microbial growth inhibition at 50 mg/kg, po administered once weekly during logarithmic multiplication from day 60 to day 150 post infection measured on day 152 post infection; set-up: dose 50 mg/kg
Mycobacterium leprae [25] = experiment: Antimycobacterial activity against Mycobacterium leprae infected in CBA/J mouse assessed as microbial growth inhibition at 12.5 mg/kg, po administered 5 times weekly during logarithmic multiplication from day 60 to day 150 post infection measured on day 152 post infection; set-up: dose 12.5 mg/kg
Mycobacterium leprae [26] = experiment: Antimycobacterial activity against Mycobacterium leprae infected in CBA/J mouse assessed as microbial growth inhibition at 6 mg/kg, po administered 5 times weekly during logarithmic multiplication from day 60 to day 150 post infection measured on day 152 post infection; set-up: dose 6 mg/kg
Mycobacterium leprae [27] = experiment: Antimycobacterial activity against Mycobacterium leprae infected in CBA/J mouse assessed as microbial growth inhibition at 25 mg/kg, po administered once weekly during logarithmic multiplication from day 60 to day 150 post infection measured on day 228 post infection; set-up: dose 25 mg/kg
Mycobacterium leprae [28] = experiment: Antimycobacterial activity against Mycobacterium leprae infected in CBA/J mouse assessed as microbial growth inhibition at 25 mg/kg, po administered once weekly during logarithmic multiplication from day 60 to day 150 post infection measured on day 152 post infection; set-up: dose 25 mg/kg
Mycobacterium leprae [29] = experiment: Antimycobacterial activity against Mycobacterium leprae infected in CBA/J mouse assessed as microbial growth inhibition at 25 mg/kg, po administered 5 times weekly during logarithmic multiplication from day 60 to day 150 post infection measured on day 152 post infection; set-up: dose 25 mg/kg
Mycobacterium leprae [30] = experiment: Antimycobacterial activity against Mycobacterium leprae infected in CBA/J mouse assessed as microbial growth inhibition at 1 mg/kg, po administered 5 times weekly during logarithmic multiplication from day 60 to day 150 post infection measured on day 228 post infection; set-up: dose 1 mg/kg
Mycobacterium leprae [31] = experiment: Antimycobacterial activity against Mycobacterium leprae infected in CBA/J mouse assessed as microbial growth inhibition at 120 mg/kg, po administered once monthly during logarithmic multiplication from day 60 to day 150 post infection measured on day 152 post infection; set-up: dose 120 mg/kg

Measured: growth inhibition (GI)

COc1nc2ccc(Br)cc2cc1[C@@H](c1ccccc1)[C@@](O)(CCN(C)C)c1cccc2ccccc12
active: Mycobacterium leprae [1] | Mycobacterium leprae [2] | Mycobacterium leprae [3] | Mycobacterium leprae [4] | Mycobacterium leprae [5] | Mycobacterium leprae [6] | Mycobacterium leprae [7] | Mycobacterium leprae [8] | Mycobacterium leprae [9] | Mycobacterium leprae [10] | Mycobacterium leprae [11] | Mycobacterium leprae [12] | Mycobacterium leprae [13] | Mycobacterium leprae [14] | Mycobacterium leprae [15] | Mycobacterium leprae [16] | Mycobacterium leprae [17] | Mycobacterium leprae [18] | Mycobacterium leprae [19] | Mycobacterium leprae [20] | Mycobacterium leprae [21] | Mycobacterium leprae [22] | Mycobacterium leprae [23] | Mycobacterium leprae [24] | Mycobacterium leprae [25] | Mycobacterium leprae [26] | Mycobacterium leprae [27] | Mycobacterium leprae [28] | Mycobacterium leprae [29] | Mycobacterium leprae [30] | Mycobacterium leprae [31]
